Data: ChEMBL document CHEMBL6127130, “Pullenvalenes E-H: Triterpenyl-Aminoglycosides from an Australian Soil-Derived Fungus, Clonostachys sp” (J Nat Prod, 2024)

Columns and labels:
[1] = Inhibition of RANKL-induced osteoclastogenesis in mouse RAW264 cells assessed as reduction in multinucleated TRAP positive osteoclasts incubated for 4 days by TRAP staining based light microscopic analysis; assay type: functional, cell-based; conditions: raw264.7
Escherichia coli = assay: Antibacterial activity against Escherichia coli ATCC 11775 assessed as inhibition of bacterial growth incubated for 24 hrs by serial dilution based spectrophotometric analysis; assay type: functional, organism-based; conditions: ATCC 11775, 24 h
Staphylococcus aureus = assay: Antibacterial activity against Staphylococcus aureus ATCC 25923 assessed as inhibition of bacterial growth incubated for 24 hrs by serial dilution based spectrophotometric analysis; assay type: functional, organism-based; conditions: ATCC 25923, 24 h
Candida albicans = assay: Antifungal activity against Candida albicans ATCC 10231 assessed as inhibition of fungal growth incubated for 48 hrs by serial dilution based spectrophotometric analysis; assay type: functional, organism-based; conditions: ATCC 10231, 48 h
SW-620 = assay: Cytotoxicity against human SW620 cells assessed as inhibition of cell growth incubated for 24 hrs by MTT assay; assay type: functional, cell-based; conditions: SW-620, 24 h
NCI-H460 = assay: Cytotoxicity against human NCI-H460 cells assessed as inhibition of cell growth incubated for 24 hrs by MTT assay; assay type: functional, cell-based; conditions: NCI-H460, 24 h

SMILES: CC(C)[C@@]1(O)CC[C@@]2(C)C[C@](O)([C@@H]3CC[C@@H]4[C@]3(C)CC[C@H]3OC(C)(C)[C@H](O)C(=O)[C@@H](O)[C@]43C)CC[C@H]21
- IC50 [1]: 12.8 µM

SMILES: CC(C)[C@@]1(O)CC[C@@]2(C)C[C@](O)([C@@H]3CC[C@@H]4[C@]3(C)CC[C@H]3OC(C)(C)[C@H](O)C(=O)[C@H](O)[C@]43C)CC[C@H]21
- IC50 [1]: 32.8 µM

SMILES: COC[C@H]1O[C@H](O[C@@]2(C)CC[C@@H](C(C)(C)O)O[C@@H]2CC[C@H](C)[C@@]2(C)CCC3=C2CC[C@@H]2OC(C)(C)[C@H](O[C@H]4O[C@H](COC)[C@@H](O)[C@H](O)[C@H]4NC(C)=O)[C@@H](O)C[C@@]32C)[C@H](NC(C)=O)[C@@H](O)[C@@H]1O
- IC50 (Escherichia coli): > 30 µM
- IC50 (Staphylococcus aureus): > 30 µM
- IC50 (Candida albicans): > 30 µM
- IC50 (SW-620): > 30 µM
- IC50 (NCI-H460): > 30 µM

SMILES: COC[C@H]1O[C@H](O[C@@]2(C)CC[C@@H](C(C)(C)O)O[C@@H]2CC[C@H](C)[C@@]2(C)CC=C3[C@@H]2CC[C@@H]2OC(C)(C)[C@H](O[C@H]4O[C@H](COC)[C@@H](O)[C@H](O)[C@H]4NC(C)=O)[C@@H](O)C[C@@]32C)[C@H](NC(C)=O)[C@@H](O)[C@@H]1O
- IC50 (Escherichia coli): > 30 µM
- IC50 (Staphylococcus aureus): > 30 µM
- IC50 (Candida albicans): > 30 µM
- IC50 (SW-620): > 30 µM
- IC50 (NCI-H460): > 30 µM

SMILES: COC[C@H]1O[C@H](O[C@@H]2CC[C@@]3(C)C4=CC[C@](C)([C@@H](C)CC[C@H]5O[C@H](C(C)(C)O)CC[C@]5(C)O[C@H]5O[C@H](COC)[C@@H](O)[C@H](O)[C@H]5NC(C)=O)[C@H]4CC[C@@H]3OC2(C)C)[C@H](NC(C)=O)[C@@H](O)[C@@H]1O
- IC50 (Escherichia coli): > 30 µM
- IC50 (Staphylococcus aureus): > 30 µM
- IC50 (Candida albicans): > 30 µM
- IC50 (SW-620): > 30 µM
- IC50 (NCI-H460): > 30 µM

SMILES: COC[C@H]1O[C@H](O[C@@H]2CC[C@@]3(C)C4=C(CC[C@@H]3OC2(C)C)[C@@](C)([C@@H](C)CC[C@H]2O[C@H](C(C)(C)O)CC[C@]2(C)O[C@H]2O[C@H](COC)[C@@H](O)[C@H](O)[C@H]2NC(C)=O)CC4)[C@H](NC(C)=O)[C@@H](O)[C@@H]1O
- IC50 (Escherichia coli): > 30 µM
- IC50 (Staphylococcus aureus): > 30 µM
- IC50 (Candida albicans): > 30 µM
- IC50 (SW-620): > 30 µM
- IC50 (NCI-H460): > 30 µM

SMILES: COC[C@H]1O[C@H](O[C@@H]2[C@@H](O)C[C@@]3(C)C4=CC[C@](C)([C@@H](C)CC[C@H]5O[C@H](C(C)(C)O)CC[C@]5(C)O)[C@H]4CC[C@@H]3OC2(C)C)[C@H](NC(C)=O)[C@@H](O)[C@@H]1O
- IC50 (Escherichia coli): > 30 µM
- IC50 (Staphylococcus aureus): > 30 µM
- IC50 (Candida albicans): > 30 µM
- IC50 (SW-620): > 30 µM
- IC50 (NCI-H460): > 30 µM

SMILES: COC[C@H]1O[C@H](O[C@@H]2CC[C@@]3(C)C4=CC[C@](C)([C@@H](C)CC[C@H]5O[C@H](C(C)(C)O)CC[C@]5(C)O)[C@H]4CC[C@@H]3OC2(C)C)[C@H](NC(C)=O)[C@@H](O)[C@@H]1O
- IC50 (Escherichia coli): > 30 µM
- IC50 (Staphylococcus aureus): > 30 µM
- IC50 (Candida albicans): > 30 µM
- IC50 (SW-620): > 30 µM
- IC50 (NCI-H460): > 30 µM

SMILES: CC(=O)N[C@H]1[C@@H](O[C@@H]2CC[C@@]3(C)C4=CC[C@](C)([C@@H](C)CC[C@H]5O[C@H](C(C)(C)O)CC[C@]5(C)O)[C@H]4CC[C@@H]3OC2(C)C)O[C@H](CO)[C@@H](O)[C@@H]1O
- IC50 (Escherichia coli): > 30 µM
- IC50 (Staphylococcus aureus): > 30 µM
- IC50 (Candida albicans): > 30 µM
- IC50 (SW-620): > 30 µM
- IC50 (NCI-H460): > 30 µM

SMILES: COC[C@H]1O[C@H](O[C@@]2(C)CC[C@@H](C(C)(C)O)O[C@@H]2CC[C@H](C)[C@@]2(C)CC=C3[C@@H]2CC[C@@H]2OC(C)(C)[C@H](O[C@H]4O[C@H](CO)[C@@H](O)[C@H](O)[C@H]4NC(C)=O)CC[C@@]32C)[C@H](NC(C)=O)[C@@H](O)[C@@H]1O
- IC50 (Escherichia coli): > 30 µM
- IC50 (Staphylococcus aureus): > 30 µM
- IC50 (Candida albicans): > 30 µM
- IC50 (SW-620): > 30 µM
- IC50 (NCI-H460): > 30 µM
